Each block holds one molecule with its values, some of them ahead of it.
What was measured:
[1] = molecular target: T1, Atypical kinase COQ8B, mitochondrial (Homo sapiens) (UniProt Q96D53); experiment: Selectivity interaction (KinomeScan (DiscoverX)) EUB0000607a ADCK4; details: at 10 µM
T1 sequence (whole entry): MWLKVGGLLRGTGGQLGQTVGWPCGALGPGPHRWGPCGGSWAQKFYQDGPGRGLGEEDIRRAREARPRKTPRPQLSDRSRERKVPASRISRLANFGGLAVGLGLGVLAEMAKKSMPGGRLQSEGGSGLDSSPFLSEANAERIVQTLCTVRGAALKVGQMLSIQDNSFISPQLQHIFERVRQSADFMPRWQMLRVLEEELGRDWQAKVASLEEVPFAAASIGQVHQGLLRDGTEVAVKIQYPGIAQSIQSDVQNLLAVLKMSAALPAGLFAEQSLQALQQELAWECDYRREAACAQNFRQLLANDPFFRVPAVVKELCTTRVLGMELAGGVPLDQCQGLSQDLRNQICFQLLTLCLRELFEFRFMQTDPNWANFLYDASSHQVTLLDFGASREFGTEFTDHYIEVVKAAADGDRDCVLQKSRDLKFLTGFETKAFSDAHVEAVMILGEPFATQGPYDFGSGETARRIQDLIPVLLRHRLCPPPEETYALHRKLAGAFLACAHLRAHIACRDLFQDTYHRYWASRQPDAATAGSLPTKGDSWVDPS

[2] = tested on: Phosphatidylinositol 4,5-bisphosphate 3-kinase catalytic subunit alpha isoform (Homo sapiens), P42336 [H1047L]; details: at 10 µM
[3] = molecular target: T2, 3-phosphoinositide-dependent protein kinase 1 (Homo sapiens) (UniProt O15530); experiment: Selectivity interaction (KinomeScan (DiscoverX)) EUB0000607a PDPK1; details: at 10 µM
T2 sequence (whole entry): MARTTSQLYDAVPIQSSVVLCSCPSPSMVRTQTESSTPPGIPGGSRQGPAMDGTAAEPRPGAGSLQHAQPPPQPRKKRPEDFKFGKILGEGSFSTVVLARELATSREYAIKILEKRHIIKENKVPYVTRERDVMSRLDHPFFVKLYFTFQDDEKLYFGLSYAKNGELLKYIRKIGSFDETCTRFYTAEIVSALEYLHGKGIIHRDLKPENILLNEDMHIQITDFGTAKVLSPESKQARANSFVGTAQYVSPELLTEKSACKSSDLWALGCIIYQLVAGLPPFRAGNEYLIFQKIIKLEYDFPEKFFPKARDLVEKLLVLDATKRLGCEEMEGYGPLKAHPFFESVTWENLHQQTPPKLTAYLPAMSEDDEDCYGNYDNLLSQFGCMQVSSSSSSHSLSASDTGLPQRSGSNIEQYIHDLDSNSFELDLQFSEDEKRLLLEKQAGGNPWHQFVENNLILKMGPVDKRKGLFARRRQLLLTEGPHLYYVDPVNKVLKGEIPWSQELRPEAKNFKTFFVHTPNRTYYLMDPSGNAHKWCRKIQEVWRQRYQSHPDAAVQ

[4] = molecular target: Mitogen-activated protein kinase 3 (Homo sapiens, UniProt P27361); experiment: Selectivity interaction (Kinase panel (KiNativ target engagement assay in Jurkat cells)) EUB0001635a MAPK3; type: cell-based; details: Selectivity number of off-targets 0.0, Selectivity number of targets 233.0, Source Knowledge https://www.sciencedirect.com/science/article/pii/S2451945619300674?via%3Dihub, at 1 µM
[5] = molecular target: Dual specificity tyrosine-phosphorylation-regulated kinase 1A (Homo sapiens, UniProt Q13627); experiment: Selectivity interaction (Kinase panel (Invitrogen)) EUB0000639a DYRK1A; details: at 200 nM
[6] = molecular target: T3, Mitogen-activated protein kinase kinase kinase 6 (Homo sapiens) (UniProt O95382); experiment: Selectivity interaction (ActivX KiNativ screen (kinase selectivity in THP-1 cell lysates)) EUB0000639a MAP3K6; type: subcellular; details: lysate, at 1 µM
T3 sequence (whole entry): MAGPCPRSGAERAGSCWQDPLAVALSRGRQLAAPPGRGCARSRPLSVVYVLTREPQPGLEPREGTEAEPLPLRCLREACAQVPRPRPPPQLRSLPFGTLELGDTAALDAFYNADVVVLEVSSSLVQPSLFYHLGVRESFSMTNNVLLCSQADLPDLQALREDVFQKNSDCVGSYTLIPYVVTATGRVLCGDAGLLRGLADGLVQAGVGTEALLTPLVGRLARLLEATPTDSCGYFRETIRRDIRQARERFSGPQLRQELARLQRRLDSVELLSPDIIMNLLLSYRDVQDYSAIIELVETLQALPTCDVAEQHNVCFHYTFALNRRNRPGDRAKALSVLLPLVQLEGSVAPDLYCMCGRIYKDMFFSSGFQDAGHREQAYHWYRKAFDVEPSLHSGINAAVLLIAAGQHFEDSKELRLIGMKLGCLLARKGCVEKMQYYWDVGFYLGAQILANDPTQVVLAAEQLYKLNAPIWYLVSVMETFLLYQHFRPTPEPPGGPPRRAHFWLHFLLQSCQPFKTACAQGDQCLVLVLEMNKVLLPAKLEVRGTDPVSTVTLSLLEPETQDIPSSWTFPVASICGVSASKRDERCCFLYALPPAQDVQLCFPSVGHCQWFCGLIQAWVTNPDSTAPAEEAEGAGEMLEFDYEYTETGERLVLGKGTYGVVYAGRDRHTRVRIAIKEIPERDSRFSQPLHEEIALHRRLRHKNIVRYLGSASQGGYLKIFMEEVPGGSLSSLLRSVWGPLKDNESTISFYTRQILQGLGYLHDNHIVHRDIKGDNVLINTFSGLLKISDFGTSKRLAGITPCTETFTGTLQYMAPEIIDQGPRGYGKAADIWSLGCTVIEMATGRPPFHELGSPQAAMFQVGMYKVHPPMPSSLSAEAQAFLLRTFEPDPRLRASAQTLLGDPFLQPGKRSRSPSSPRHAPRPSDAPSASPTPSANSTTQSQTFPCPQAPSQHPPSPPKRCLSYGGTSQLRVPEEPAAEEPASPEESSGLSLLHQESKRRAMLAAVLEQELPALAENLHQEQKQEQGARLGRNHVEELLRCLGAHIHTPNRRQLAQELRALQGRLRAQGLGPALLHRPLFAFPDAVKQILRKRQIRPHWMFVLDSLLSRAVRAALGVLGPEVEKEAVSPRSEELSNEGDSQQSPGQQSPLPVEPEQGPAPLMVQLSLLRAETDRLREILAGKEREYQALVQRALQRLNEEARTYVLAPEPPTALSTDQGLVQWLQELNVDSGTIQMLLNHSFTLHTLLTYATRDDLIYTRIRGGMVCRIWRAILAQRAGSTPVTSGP

[7] = molecular target: Cyclin-dependent kinase 4/cyclin D1 (Homo sapiens, UniProt P11802)
[8] = molecular target: Serine/threonine-protein kinase SIK1 (Homo sapiens) (UniProt P57059); experiment: Selectivity interaction (KinomeScan (DiscoverX)) EUB0000092b SIK1; details: at 10 µM
Sequence of Serine/threonine-protein kinase SIK1 (Homo sapiens) (P57059 whole entry): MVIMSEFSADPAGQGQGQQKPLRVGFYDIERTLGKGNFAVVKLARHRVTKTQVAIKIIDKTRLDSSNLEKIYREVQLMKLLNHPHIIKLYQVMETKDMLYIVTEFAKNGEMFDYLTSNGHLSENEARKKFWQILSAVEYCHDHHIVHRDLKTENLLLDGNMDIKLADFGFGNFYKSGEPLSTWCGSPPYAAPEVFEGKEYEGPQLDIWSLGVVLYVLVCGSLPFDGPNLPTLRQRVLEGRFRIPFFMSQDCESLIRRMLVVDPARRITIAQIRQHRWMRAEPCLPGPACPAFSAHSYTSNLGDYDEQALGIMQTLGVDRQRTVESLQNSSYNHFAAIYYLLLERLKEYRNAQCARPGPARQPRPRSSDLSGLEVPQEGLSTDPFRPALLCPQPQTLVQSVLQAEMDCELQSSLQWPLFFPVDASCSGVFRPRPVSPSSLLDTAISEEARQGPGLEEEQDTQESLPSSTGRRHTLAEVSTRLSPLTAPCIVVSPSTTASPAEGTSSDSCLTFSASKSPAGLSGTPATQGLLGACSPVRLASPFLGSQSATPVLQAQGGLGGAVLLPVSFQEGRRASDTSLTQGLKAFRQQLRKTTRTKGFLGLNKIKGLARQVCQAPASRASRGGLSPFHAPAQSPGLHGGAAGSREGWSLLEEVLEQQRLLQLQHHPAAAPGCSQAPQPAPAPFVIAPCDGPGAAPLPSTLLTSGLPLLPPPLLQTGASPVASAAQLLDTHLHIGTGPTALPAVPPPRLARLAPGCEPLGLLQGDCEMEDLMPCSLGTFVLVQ

Sequence of Cyclin-dependent kinase 4/cyclin D1 (P11802 whole entry): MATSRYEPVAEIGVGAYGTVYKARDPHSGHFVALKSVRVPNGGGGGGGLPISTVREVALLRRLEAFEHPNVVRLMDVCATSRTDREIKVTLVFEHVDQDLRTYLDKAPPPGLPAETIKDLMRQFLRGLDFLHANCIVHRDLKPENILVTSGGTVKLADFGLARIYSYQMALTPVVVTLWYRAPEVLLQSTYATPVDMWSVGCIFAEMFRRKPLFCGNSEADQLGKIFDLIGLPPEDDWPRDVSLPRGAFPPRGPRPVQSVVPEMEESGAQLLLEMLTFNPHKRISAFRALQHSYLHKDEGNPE
Sequence of Cyclin-dependent kinase 4/cyclin D1 (P24385 whole entry, further chain): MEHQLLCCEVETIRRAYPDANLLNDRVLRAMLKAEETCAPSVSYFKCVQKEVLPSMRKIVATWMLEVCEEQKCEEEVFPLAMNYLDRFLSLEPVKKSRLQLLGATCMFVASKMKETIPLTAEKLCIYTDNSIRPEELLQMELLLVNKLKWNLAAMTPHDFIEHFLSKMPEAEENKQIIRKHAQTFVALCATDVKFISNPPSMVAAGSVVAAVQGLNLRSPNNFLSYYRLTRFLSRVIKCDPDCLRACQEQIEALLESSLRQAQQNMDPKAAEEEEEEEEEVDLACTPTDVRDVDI
Sequence of Mitogen-activated protein kinase 3 (P27361 whole entry): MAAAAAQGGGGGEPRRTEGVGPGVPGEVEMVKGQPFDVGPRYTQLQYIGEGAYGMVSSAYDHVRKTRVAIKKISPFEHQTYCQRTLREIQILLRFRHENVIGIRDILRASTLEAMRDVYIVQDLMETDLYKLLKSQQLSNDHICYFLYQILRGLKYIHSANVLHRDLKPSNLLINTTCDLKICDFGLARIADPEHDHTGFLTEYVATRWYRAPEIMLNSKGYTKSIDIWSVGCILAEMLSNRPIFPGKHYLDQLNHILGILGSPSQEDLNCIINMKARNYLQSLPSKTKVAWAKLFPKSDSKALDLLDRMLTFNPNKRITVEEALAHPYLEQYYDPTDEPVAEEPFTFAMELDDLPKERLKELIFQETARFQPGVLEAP
Sequence of Phosphatidylinositol 4,5-bisphosphate 3-kinase catalytic subunit alpha isoform (Homo sapiens), P42336 [H1047L] (P42336 whole entry H1047L, canonical isoform): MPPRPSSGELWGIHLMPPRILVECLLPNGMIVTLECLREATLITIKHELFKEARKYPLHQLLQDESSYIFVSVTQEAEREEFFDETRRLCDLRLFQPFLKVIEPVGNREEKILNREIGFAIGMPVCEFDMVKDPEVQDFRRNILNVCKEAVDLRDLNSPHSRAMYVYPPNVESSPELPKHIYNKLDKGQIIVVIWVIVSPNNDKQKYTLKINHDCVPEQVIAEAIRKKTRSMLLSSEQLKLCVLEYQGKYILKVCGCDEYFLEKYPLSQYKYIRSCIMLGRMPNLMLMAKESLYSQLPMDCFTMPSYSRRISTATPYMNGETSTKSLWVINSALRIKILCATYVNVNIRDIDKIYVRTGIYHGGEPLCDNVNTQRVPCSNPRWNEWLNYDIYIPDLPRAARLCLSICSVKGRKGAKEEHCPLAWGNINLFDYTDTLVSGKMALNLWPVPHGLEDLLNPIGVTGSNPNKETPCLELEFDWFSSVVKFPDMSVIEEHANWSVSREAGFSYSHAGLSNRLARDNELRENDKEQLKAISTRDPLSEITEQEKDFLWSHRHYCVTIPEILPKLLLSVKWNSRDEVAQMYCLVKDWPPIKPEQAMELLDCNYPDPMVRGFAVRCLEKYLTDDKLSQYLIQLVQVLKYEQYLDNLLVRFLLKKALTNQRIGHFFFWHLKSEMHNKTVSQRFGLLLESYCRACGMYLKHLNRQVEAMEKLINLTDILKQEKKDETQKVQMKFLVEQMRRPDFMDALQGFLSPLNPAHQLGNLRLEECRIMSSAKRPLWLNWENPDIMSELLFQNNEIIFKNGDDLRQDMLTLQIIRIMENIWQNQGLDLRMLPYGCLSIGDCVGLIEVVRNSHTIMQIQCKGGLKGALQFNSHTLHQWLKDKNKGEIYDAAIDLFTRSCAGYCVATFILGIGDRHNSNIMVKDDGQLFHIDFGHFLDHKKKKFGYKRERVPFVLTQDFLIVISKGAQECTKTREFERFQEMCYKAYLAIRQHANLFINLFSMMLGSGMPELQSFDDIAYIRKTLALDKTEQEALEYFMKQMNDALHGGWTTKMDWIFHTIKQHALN

SMILES: CNC(=O)Nc1ccc(-c2nc(N3CC4CCC(C3)O4)c3cnn(C4CCC5(CC4)OCCO5)c3n2)cc1
% of control [1]: 100%
% of control [2]: 15%
% of control [3]: 76%

SMILES: C=CC(=O)Nc1ccc(C(=O)Nc2[nH]nc3c2CN(C(=O)N[C@H](CN(C)C)c2ccccc2)C3(C)C)cc1
% of engagement [4]: -1.4%

% of inhibition [5]: 17.9%
% of inhibition [6]: -16.4%
SMILES: CC[C@@H]1[C@H](F)C(=O)N[C@@H]1COc1nccc2cc(C(N)=O)c(OC)cc12 [ZIMLOVISERTIB]

IC50 [7]: > 10 µM
SMILES: CCc1cccc(CC)c1NC(=O)c1nn(C)c2c1CCc1cnc(Nc3ccc(C(=O)NC4CCN(C)CC4)cc3OC(F)(F)F)nc1-2

SMILES: CCC(=O)N1CCN(c2ccc(-n3c(=O)ccc4cnc5ccc(-c6cnc7ccccc7c6)cc5c43)cc2C(F)(F)F)CC1
% of control [8]: 80%

From ChEMBL document CHEMBL5465560, “Selectivity Literature for EUbOPEN Chemogenomic Library” (2024)
